Reference: ChEMBL document CHEMBL1136034, “Selective urokinase-type plasminogen activator (uPA) inhibitors. Part 1: 2-Pyridinylguanidines” (Bioorg Med Chem Lett, 2002)

What was measured:
Plasminogen [1] = target: T1, Plasminogen (Homo sapiens, UniProt P00747); test: Inhibition of human plasmin with Chromozym-PL at 1 mM
[2] = target: T2, Tissue-type plasminogen activator (Homo sapiens, UniProt P00750); test: Ability to inhibit human tissue plasminogen activator stimulator at concentration of 1 uM
Target sequence in this assay (P00750 36-562 limits assumed): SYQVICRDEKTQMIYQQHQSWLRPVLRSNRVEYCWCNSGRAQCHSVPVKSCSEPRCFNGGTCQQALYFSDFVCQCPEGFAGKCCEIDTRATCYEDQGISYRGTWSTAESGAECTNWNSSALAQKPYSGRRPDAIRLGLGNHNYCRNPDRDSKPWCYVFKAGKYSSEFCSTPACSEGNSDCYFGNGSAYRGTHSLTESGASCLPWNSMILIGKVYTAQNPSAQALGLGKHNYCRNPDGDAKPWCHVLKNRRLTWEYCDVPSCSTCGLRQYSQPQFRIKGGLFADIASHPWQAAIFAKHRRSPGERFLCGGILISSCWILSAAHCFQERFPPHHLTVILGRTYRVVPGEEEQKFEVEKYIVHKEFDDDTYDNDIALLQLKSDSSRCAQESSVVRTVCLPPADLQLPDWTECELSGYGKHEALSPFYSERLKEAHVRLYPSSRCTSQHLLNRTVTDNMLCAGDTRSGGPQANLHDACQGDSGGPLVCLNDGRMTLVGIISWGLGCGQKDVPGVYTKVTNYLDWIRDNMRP

[3] = target: T3, Urokinase-type plasminogen activator (Homo sapiens, UniProt P00749); test: In vitro inhibition of HWMT human urokinase Plasminogen activator.
Plasminogen [4] = target: T1, Plasminogen; test: Ability to inhibit human plasmin using Chromozym-PL as substrate at concentration of 1 uM
Plasminogen [5] = target: T1, Plasminogen; test: Ability to inhibit human plasmin using Chromozym-PL as substrate
[6] = target: T2, Tissue-type plasminogen activator; test: Ability to inhibit human tissue plasminogen activator stimulator at concentration of 1 mM
Target sequence in this assay (P00750 36-562 limits assumed): as above

[7] = target: T2, Tissue-type plasminogen activator; test: Ability to inhibit human tissue plasminogen activator stimulator at concentration of 30 uM
Target sequence in this assay (P00750 36-562 limits assumed): as above

[8] = target: T3, Urokinase-type plasminogen activator; test: Ability to inhibit microPa (calbiochem) and S-2444 (quadratech) as substrate at concentration of 30 uM
[9] = target: T2, Tissue-type plasminogen activator; test: Inhibition of human tissue plasminogen activator stimulator at 1 mM
Target sequence in this assay (P00750 36-562 limits assumed): as above

[10] = target: T3, Urokinase-type plasminogen activator; test: Ability to inhibit microPa (calbiochem) and S-2444 (quadratech) as substrate at concentration of 1 uM
[11] = target: T2, Tissue-type plasminogen activator; test: Ability to inhibit human tissue plasminogen activator stimulator
Target sequence in this assay (P00750 whole entry): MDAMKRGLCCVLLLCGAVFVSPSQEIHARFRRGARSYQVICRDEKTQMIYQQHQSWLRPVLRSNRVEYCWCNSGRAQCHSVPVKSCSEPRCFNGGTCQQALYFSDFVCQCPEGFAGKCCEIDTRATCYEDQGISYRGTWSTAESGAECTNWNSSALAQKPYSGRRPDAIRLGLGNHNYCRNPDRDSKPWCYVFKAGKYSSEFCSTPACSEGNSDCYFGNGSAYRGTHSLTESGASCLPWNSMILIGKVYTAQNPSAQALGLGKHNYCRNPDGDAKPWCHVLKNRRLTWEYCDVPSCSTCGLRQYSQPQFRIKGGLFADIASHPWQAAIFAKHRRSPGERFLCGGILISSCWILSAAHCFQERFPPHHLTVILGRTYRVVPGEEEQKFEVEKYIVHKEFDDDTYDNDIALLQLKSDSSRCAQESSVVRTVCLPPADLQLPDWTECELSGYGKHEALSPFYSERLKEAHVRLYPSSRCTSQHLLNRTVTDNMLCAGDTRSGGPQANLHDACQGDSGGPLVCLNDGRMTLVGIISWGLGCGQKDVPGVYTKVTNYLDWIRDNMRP

Plasminogen [12] = target: T1, Plasminogen; test: Ability to inhibit human plasmin using Chromozym-PL as substrate at concentration of 30 uM
[13] = target: T2, Tissue-type plasminogen activator; test: Ability to inhibit human tissue plasminogen activator stimulator at concentration of 100 uM
Target sequence in this assay (P00750 36-562 limits assumed): as the sequence (P00750 36-562 limits assumed) above

[14] = target: T3, Urokinase-type plasminogen activator; test: Ability to inhibit microPa (calbiochem) and S-2444 (quadratech) as substrate at concentration of 100 uM

T1 sequence (P00747 97-580 limits assumed): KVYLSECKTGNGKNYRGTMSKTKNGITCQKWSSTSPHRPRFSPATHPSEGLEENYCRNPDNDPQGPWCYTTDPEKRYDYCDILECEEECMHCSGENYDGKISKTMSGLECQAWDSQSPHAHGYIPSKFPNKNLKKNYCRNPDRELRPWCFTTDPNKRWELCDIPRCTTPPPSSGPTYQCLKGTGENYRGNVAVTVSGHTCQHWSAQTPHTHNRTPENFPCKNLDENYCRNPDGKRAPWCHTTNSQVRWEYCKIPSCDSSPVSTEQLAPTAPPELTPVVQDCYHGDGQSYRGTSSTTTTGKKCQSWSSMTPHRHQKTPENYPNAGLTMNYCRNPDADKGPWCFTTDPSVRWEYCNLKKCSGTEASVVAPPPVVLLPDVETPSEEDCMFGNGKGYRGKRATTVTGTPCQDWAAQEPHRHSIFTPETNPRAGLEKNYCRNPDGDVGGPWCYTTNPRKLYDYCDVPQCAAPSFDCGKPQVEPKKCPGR
T1 sequence (P00747 581-810 limits assumed): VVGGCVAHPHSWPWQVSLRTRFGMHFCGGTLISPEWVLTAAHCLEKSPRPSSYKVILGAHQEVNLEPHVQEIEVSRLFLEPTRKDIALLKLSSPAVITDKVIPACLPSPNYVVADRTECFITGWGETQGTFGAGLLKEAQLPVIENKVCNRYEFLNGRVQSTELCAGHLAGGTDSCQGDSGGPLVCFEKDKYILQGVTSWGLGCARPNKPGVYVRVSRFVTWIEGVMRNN

Compound | inhibition (Plasminogen [1]) [%] | Ki [3] [µM] | inhibition [9] [%] | also measured
N=C(N)Nc1ncc(Cl)cc1Br | < 50 |  |  | 
N=C(N)Nc1ccccn1 |  | 29.5 |  | inhibition [2]: < 50%; inhibition (Plasminogen [4]): < 50%
N=C(N)Nc1ccc(Cl)cc1 |  |  |  | Ki (Plasminogen [5]): < 50 µM; inhibition [6]: < 50%
N=C(N)Nc1ccncc1 |  |  |  | Ki (Plasminogen [5]): 16.9 µM; inhibition [7]: < 50%; inhibition [8]: < 50%
Cc1ccc(NC(=N)N)nc1 |  | 32.3 | < 50 | 
NC(N)=Nc1ncc(Br)cc1Cl |  | 2.9 |  | 
N=C(N)Nc1ccc(Br)cn1 | < 50 | 3.13 | < 50 | 
NC(N)=Nc1ncc(Cl)cc1Cl |  | 5.47 |  | 
COc1cccnc1N=C(N)N |  |  | < 50 | Ki (Plasminogen [5]): < 232 µM
Cc1ccnc(NC(=N)N)c1 | < 50 | 83.8 |  | inhibition [6]: < 50%
N=C(N)Nc1cc(-c2ccccc2)ccn1 | < 50 |  | 54 | 
N=C(N)Nc1cccnc1 |  |  |  | inhibition [2]: < 50%; inhibition [10]: < 50%; inhibition (Plasminogen [4]): < 50%
N=C(N)Nc1ncc(C(F)(F)F)cc1Cl | < 50 |  | < 50 | 
NC(N)=Nc1ncc(Cl)cc1Br |  |  |  | Ki [11]: 272 µM
N=C(N)Nc1ncc(Br)cc1Cl | < 50 |  | < 50 | 
N=C(N)Nc1ncccn1 |  | 292 |  | inhibition [2]: < 50%; inhibition (Plasminogen [4]): < 50%
Cc1cccc(N=C(N)N)n1 | < 50 | 173 | < 50 | 
N=C(N)Nc1ncc(Cl)cc1Cl | < 50 |  | < 50 | 
NC(N)=Nc1ncccc1O |  | 147 |  | 
N=C(N)Nc1ccc(Cl)cn1 | < 50 |  | < 50 | 
COc1ccnc(NC(=N)N)c1 | < 50 |  | < 50 | 
Cc1cccnc1N=C(N)N | < 50 | 37.7 |  | inhibition [6]: < 50%
Cc1c(Cl)cnc(N=C(N)N)c1Cl |  |  | < 50 | Ki (Plasminogen [5]): 176 µM
N=C(N)Nc1ncccc1O | < 50 |  | < 50 | 
N=C(N)Nc1cnccn1 |  |  |  | inhibition [2]: < 50%; inhibition [10]: < 50%; inhibition (Plasminogen [4]): < 50%
N=C(N)Nc1ccncn1 |  |  |  | inhibition [2]: < 50%; inhibition [10]: < 50%; inhibition (Plasminogen [4]): < 50%
N=C(N)Nc1cccnn1 |  |  |  | inhibition (Plasminogen [12]): < 50%; inhibition [13]: < 50%; inhibition [14]: < 50%
